Patent US20250026741A1, “INHIBITORS OF THE ONCOGENIC SHP2 PHOSPHATASE AND USES THEREOF” (Sanford Burnham Prebys Medical Discovery Institute, priority 2021, published 2025)

What was measured:
Format in all cases: cell-based
[1] = tested on: MOLM-13-Cas9-mCherry cells with SHP2 KO; experiment: SHP2 CRISPR-Cas9 knockout inhibitor selectivity assay (cell viability); settings: MOLM-13-Cas9-mCherry SHP2 KO cells, 72 h
Experimental: Finally, we evaluated the selectivity of our top two compounds, #01 and #02, on MOLM-13 AML cells in which SHP2 was depleted using CRISPR-Cas9 knock-out (KO). High-efficiency Cas9-editing MOLM-13 cells were generated by transducingMOLM-13 cells with a Cas9 lentiviral construct. Stable clones were tested for editing efficiency by performing TIDE analysis (45), and these MOLM13-Cas9 cells were transduced with a lentiviral construct containing an AAVS1 single guide RNA (sgRNA) and an mCherry reporter for bulk-sorting of cells with successful AAVS1 editing. SHP2 KO was achieved by transducing MOLM-13-Cas9-mCherry cells with a lentivirus containing SHP2 dual sgRNAs, resulting in ˜80% reduction of SHP2 protein levels (FIG. 3G). #01, #02, and the SHP2 allosteric inhibitor SHP099 were tested in parallel on regular MOLM-13 cells (expressing WT SHP2) and MOLM-13-Cas9-mCherry cells with SHP2 KO. Cells were treated with inhibitors at various concentrations (ranging from […] to 58 nM) or vehicle control (DMSO) for 72 h, before cell viability was assessed.
High-efficiency Cas9-editing MOLM-13 cells were generated by transducing MOLM-13 cells with the pLenti-Cas9-blasticidin construct (Addgene plasmid #52962) and selecting single stable clones using flow-sorting. Clones were then tested for editing efficiency by performing TIDE analysis (45). These MOLM13-Cas9 cells were then transduced with a lentiviral construct containing an AAVS sgRNA and an mCherry reporter out of frame and downstream of an AAVS sgRNA targeting site. […]
For SHP2 KO, dual sgRNAs targeting SHP2 were cloned in the pLentiGuide puro vector (Addgene plasmid #52963) using a published protocol (50). […] SHP2 KO was evaluated by immunoblotting. […] For SHP2 KO, MOLM-13-Cas9-mCherry cells were seeded in nontreated 6-well-plates ([…] in 2.5 mL), with cell numbers determined by trypan blue using the Countess Cell counter (Thermo Scientific). […] Cell viability was assessed using the ATP-depletion assay CellTiter-Glo® (Promega) as described above, and data were analyzed using GraphPad Prism software.

[2] = tested on: KYSE-520 esophageal cancer cells; experiment: Cell viability assay (CellTiter-Glo), KYSE-520; settings: KYSE-520 cells, various concentrations, 3 d
From the text: (§1) Inhibition of SHP2 has been reported to inhibit the growth of cancer cells including Kasumi-1 acute myeloid leukemia (AML) and KYSE-520 esophageal cancer cells. […] Cell viability is shown as a percentage of the vehicle (DMSO) control and represents the mean±SD. B) #02 dose-response curves in cell viability assays using Kasumi-1, KYSE-520, MOLM-13, and […] cells after 3 d in culture. The percentages compared to DMSO vehicle control were curve fitted using nonlinear regression (log[inhibitor] vs. normalized response, variable slope) and represent the mean±SD. C) Cell viability of […] and MDA-MB-468 triple-negative breast cancer (TNBC) cells in the presence of various concentrations of #02 or the SHP2 allosteric inhibitor SHP099 after 5 d in culture. Cell viability is shown as a percentage of DMSO vehicle control, representing mean±SD, and curve fitted as in B). D) Colony formation assay (11 d) of […] and MDA-MB-468 TNBC cells in the presence of various concentrations of #02 or the SHP2 allosteric inhibitor SHP099. E) Phospho-ERK1/2 (p-ERK1/2) immunoblot analysis from total cell lysates of MOLM-13 AML cells treated with #02 at the indicated concentrations, or with SHP2 allosteric inhibitor RMC-4550 (RMC, 1 μM) for 3 h or 24 h. The quantitation of p-ERK1/2 levels is shown as the percentage of the DMSO (vehicle) control and represents data from three independent experiments (mean±SD). F) Viability of AML patient-derived cells in the presence of 10 μM #02 or 10 μM SHP2 allosteric inhibitor RMC-4550 after 2 d, 4 d, or 6 d in culture. Cell viability is shown as a percentage of the DMSO vehicle control and represents the mean±SD (*p<0.05; **p<0.01; ****p<0.0001; unpaired test with Welch's correction) G) Viability of MOLM-13 cells and MOLM-13-Cas9-mCherry cells with SHP2 knockout (KO) in the presence of #01, #02, and allosteric inhibitor SHP099 at various concentrations (10-point dose-response). The percentages compared to the DMSO vehicle control were curve fitted using nonlinear regression (log[inhibitor] vs. normalized response, variable slope) and represent the mean±SD. SHP2 protein levels in regular MOLM-13 cells (WT), MOLM-13-Cas9-mCherry cells (Cas9), and MOLM-13-Cas9-mCherry cells with SHP2 KO (SHP2 KO) were evaluated by immunoblot analysis using SHP2 antibodies.
(§2) Viability of AML, esophageal carcinoma, and TF-1 cells was assessed using the ATP-depletion assay CellTiter-Glo® (Promega). Cells were harvested at 1×10^6/mL to 2×10^6 cells/mL with cell numbers determined by trypan blue using the Countess Cell counter (Thermo Scientific) and resuspended in culture media. […] Luminescence was read on a Tecan Spark® Multimode Microplate Reader and data analyzed using Graph Pad Prism software.

[3] = tested on: Kasumi-1 acute myeloid leukemia (AML) cells; experiment: Cell viability assay (CellTiter-Glo), Kasumi-1; settings: Kasumi-1 cells, various concentrations, 3 d
From the text: as §1, §2

| SMILES | effect on viability of SHP2 KO cells [1] | effect on cancer cell growth [2] | effect on cancer cell growth [3] |
| --- | --- | --- | --- |
| Nc1ccc(NC(=O)c2cc(-c3ccc(/C=C4\Sc5ccccc5C4=O)o3)ccc2O)cc1 [#01, (Z)—N-(4-Aminophenyl)-2-hydroxy-5-(5-((3-oxobenzo[b]thiophen-2(3H)-ylidene)methyl)furan-2-yl)benzamide] | either no effect, or a greatly reduced effect | dose-dependently inhibited cancer cell growth | dose-dependently inhibited cancer cell growth |
| N#Cc1cc(-c2ccc(/C=C3\Sc4ccccc4C3=O)o2)ccc1O [#05, (Z)-2-Hydroxy-5-(5-((3-oxobenzo[b]thiophen-2(3H)-ylidene)methyl)furan-2-yl)benzonitrile] |  | dose-dependently inhibited cancer cell growth | dose-dependently inhibited cancer cell growth |
| O=C(Nc1ccccc1)c1cc(-c2ccc(/C=C3\Sc4ccccc4C3=O)o2)ccc1O [#02, (Z)-2-hydroxy-5-(5-((3-oxobenzo[b]thiophen-2(3H)-ylidene)methyl)furan-2-yl)-N-phenylbenzamide] | either no effect, or a greatly reduced effect | dose-dependently inhibited cancer cell growth | dose-dependently inhibited cancer cell growth |
